Assay results from patent publication US8618133B2, “Aralkyl alcohol pyridine derivative compounds and the use thereof as medicaments for treating depression” (priority 2008, dated 2013).
Read-outs that look alike come from different tables or passages of the source.

How the values were obtained:
[1] = biological target: T1, reuptake of 5-serotonin (5-HT) by brain synaptosomes (Rattus norvegicus, UniProt P31652); test: [3H]5-HT reuptake by rat brain synaptosomes; assay type: biochemical; settings: for inhibiting activity on the reuptake of 5-HT (in words): concentration 10 μmol/L, effectiveness equivalent to venlafaxine and DOV21947; for Inhibition of reuptake of 5-HT: rat prefrontal cortex synaptosomes, 0.1 mmol/L for control drug and drug to be detected
T1 construct: taking prefrontal cortex for the [^3H]5-HT and [^3H]NA reuptake experiment; from tissue; host or cells: rat brain prefrontal cortex synaptosomes
T1 sequence (P31652 whole entry): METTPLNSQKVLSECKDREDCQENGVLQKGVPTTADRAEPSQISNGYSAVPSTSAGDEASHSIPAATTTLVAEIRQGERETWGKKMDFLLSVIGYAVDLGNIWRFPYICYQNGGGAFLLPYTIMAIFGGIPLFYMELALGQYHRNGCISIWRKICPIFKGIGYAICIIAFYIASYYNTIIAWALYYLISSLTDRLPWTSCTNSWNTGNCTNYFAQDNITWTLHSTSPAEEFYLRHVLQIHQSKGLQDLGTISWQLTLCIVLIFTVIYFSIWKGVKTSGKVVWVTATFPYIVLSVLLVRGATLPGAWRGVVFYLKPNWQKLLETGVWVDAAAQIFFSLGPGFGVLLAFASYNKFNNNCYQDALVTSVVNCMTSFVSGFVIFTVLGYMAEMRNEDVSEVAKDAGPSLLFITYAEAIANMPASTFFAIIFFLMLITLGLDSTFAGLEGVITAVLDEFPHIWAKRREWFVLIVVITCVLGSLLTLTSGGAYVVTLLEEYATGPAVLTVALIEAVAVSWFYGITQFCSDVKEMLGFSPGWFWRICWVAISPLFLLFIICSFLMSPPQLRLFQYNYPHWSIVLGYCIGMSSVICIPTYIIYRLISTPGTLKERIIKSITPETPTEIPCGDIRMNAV

[2] = biological target: T2, reuptake of norepinephrine (NA) by brain synaptosomes (Rattus norvegicus, UniProt Q63380); test: [3H]NA reuptake by rat brain synaptosomes; assay type: biochemical; settings: for inhibiting activity on the reuptake of NA (in words): concentration 10 μmol/L, effectiveness equivalent to venlafaxine and DOV21947; for Inhibition of reuptake of NA / inhibition at 100 µM: rat prefrontal cortex synaptosomes, 0.1 mmol/L for control drug and drug to be detected
T2 construct: taking prefrontal cortex for the [^3H]5-HT and [^3H]NA reuptake experiment; from tissue; host or cells: rat brain prefrontal cortex synaptosomes
T2 sequence (Q63380 1-617): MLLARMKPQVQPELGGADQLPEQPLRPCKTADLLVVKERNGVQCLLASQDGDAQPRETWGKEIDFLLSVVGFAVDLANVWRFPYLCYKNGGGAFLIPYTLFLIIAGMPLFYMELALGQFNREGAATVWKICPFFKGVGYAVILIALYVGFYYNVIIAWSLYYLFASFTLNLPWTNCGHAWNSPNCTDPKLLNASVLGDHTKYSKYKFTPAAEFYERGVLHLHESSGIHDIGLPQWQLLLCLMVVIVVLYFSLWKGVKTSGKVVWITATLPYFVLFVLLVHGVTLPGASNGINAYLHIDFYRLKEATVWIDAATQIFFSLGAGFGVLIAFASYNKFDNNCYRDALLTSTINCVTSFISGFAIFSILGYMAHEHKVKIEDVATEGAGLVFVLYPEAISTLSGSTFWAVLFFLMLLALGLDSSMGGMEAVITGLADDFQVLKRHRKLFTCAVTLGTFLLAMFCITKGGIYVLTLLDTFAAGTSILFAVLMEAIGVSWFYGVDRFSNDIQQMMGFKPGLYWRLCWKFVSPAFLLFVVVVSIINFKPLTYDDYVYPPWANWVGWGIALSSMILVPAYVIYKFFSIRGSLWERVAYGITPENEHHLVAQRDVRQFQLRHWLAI

[3] = biological target: T3, reuptake of dopamine (DA) by brain synaptosomes (Rattus norvegicus, UniProt P23977); test: [3H]DA reuptake by rat brain synaptosomes; assay type: biochemical; settings: for inhibiting activity on the reuptake of DA (in words): concentration 10 μmol/L, effectiveness equivalent to venlafaxine and DOV21947; for Inhibition of reuptake of DA / inhibition at 100 µM: rat striatum synaptosomes, 0.1 mmol/L for control drug and drug to be detected
T3 construct: taking striatum for the [^3H]DA reuptake experiment; from tissue; host or cells: rat brain striatum synaptosomes
T3 sequence (P23977 whole entry): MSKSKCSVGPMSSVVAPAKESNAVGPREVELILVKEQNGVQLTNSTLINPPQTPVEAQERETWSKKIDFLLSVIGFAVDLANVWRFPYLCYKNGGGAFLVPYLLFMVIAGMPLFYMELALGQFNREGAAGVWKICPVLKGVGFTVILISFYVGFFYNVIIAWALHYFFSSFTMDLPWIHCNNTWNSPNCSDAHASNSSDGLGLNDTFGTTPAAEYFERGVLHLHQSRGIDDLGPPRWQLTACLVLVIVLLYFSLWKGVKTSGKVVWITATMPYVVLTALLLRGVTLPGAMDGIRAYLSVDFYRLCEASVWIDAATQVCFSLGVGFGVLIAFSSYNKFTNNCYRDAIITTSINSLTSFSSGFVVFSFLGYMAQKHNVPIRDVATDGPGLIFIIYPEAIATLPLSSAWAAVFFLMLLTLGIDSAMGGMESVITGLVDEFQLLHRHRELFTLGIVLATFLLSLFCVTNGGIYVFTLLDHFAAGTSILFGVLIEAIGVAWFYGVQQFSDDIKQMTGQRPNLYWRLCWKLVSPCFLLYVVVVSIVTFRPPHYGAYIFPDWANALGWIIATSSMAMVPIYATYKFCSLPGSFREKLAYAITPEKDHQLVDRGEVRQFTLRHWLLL

mice [4] = test: forced swimming test of mice (immobility); assay type: in vivo; settings: for Immobility time: mice, swimming test
mice [5] = test: Acute toxicity, single dosage LD50 to mice; assay type: in vivo; settings: Bliss statistics, preliminary screening
[6] = test system: Salmonella typhimurium histidine auxotroph mutant TA97, TA98, TA100 and TA102; assay type: cell-based
Description: Strains: Salmonella typhimurium histidine auxotroph mutant TA97, TA98, TA100 and TA102.
The experimental method: the method reported in Maron D M et al: (1983) Mutay Res. 113, 173-216 is used;
The experimental result: the experiment comprises two parts: −S9 and +S9.

SMILES	inhibiting activity on the reuptake of 5-HT (in words) [1]	Inhibition of reuptake of 5-HT [1]	inhibiting activity on the reuptake of NA (in words) [2]	Inhibition of reuptake of NA [2]	inhibiting activity on the reuptake of DA (in words) [3]	Inhibition of reuptake of DA [3]	further results
COc1ccc2cc([C@@H](O)[C@H](C)N3CCC(Cc4ccccc4)CC3)ccc2c1Cl [Compound V-2, Erythro-4-benzyl-N-[1-methyl-2-hydroxy-2-(5-chloro-6-methoxynaphthalene-2-yl)]ethylpiperidine]	stronger inhibiting activity	105.6 ± 0.9	stronger inhibiting activity	65.3 ± 6.7	stronger inhibiting activity	93.1 ± 2.0	
COc1ccc2cc([C@@H](O)[C@H](C)N3CCC(O)(Cc4ccccc4)CC3)ccc2c1Cl [Compound V-14, Erythro-4-benzyl-4-hydroxy-N-[1-methyl-2-hydroxy-2-(5-chloro-6-methoxynaphthalene-2-yl)]ethylpiperidine]	stronger inhibiting activity	94.9 ± 1.2	stronger inhibiting activity	93.0 ± 20.8	stronger inhibiting activity	91.0 ± 0.9	in vivo anti-depression activity (in words) (mice [4]; forced swimming test of mice, effect similar to venlafaxine): strong in vivo anti-depression activity; Immobility time (mice [4]; dosage 6.9 mg/kg): 52.8 ± 32.0 s; Immobility time (mice [4]; dosage 13.8 mg/kg): 82.1 ± 62.0 s; Immobility time (mice [4]; dosage 27.6 mg/kg): 74.9 ± 37.8 s; LD50 (mice [5]): 1150 mg/kg; bacteriostatic effect ([6]; 5000 μg/dish, TA97, S9 added testing system): have bacteriostatic effect; bacteriostatic effect ([6]; 5000 μg/dish, non-S9 testing system): have bacteriostatic effect; Ames test, reverse mutation ([6]; all tested dosages, with or without S9): negative; bacteriostatic effect ([6]; other dosages, all strains): do nut have a bacteriostatic effect
COc1ccc2cc(C(O)CCN3CCC(=Cc4ccccc4)CC3)ccc2c1Cl (centres unmarked) [Compound V-32, 4-benzyl-methylene-N-[3-hydroxy-3-(5-chloro-6-methoxynaphthalene-2-yl)]propylpiperidine]	stronger inhibiting activity	104.4 ± 2.0	stronger inhibiting activity	36.6 ± 19.1	stronger inhibiting activity	92.4 ± 7.6	
COc1ccc2cc(C(O)C(C)N3CCC(=Cc4ccc(F)cc4)CC3)ccc2c1Cl (centres unmarked) [Compound V-34, 4-(4-fluorobenzyl)-methylene-N-[1-methyl-2-hydroxy-2-(5-chloro-6-methoxynaphthalene-2-yl)]ethyl-piperidine]		106.3 ± 2.3		18.8 ± 13.4		99.1 ± 4.3	
COc1ccc2cc(C(O)C(C)N3CCC(=Cc4ccccc4)CC3)ccc2c1Cl (centres unmarked) [Compound V-38, 4-benzyl-methylene-N-[1-methyl-2-hydroxy-2-(5-chloro-6-methoxynaphthalene-2-yl)]ethyl-piperidine]	stronger inhibiting activity	107.0 ± 0.5	stronger inhibiting activity	87.4 ± 5.5	stronger inhibiting activity	99.6 ± 2.9	
COc1ccc2cc([C@@H](O)[C@H](C)N3CC=C(Cc4ccccc4)CC3)ccc2c1Cl [Compound V-40, Erythro-4-benzyl-N-[1-methyl-2-hydroxy-2-(5-chloro-6-methoxynaphthalene-2-yl)]ethyl-1,2,3,6-tetrahydropyridine]		99.5 ± 1.6		62.6 ± 15.3		50.7 ± 21.8	
COc1ccc2cc([C@@H](O)[C@H](C)N3CCC(OCc4ccccc4)CC3)ccc2c1Cl [Compound V-50, Erythro-4-benzyloxy-N-[1-methyl-2-hydroxy-2-(5-chloro-6-methoxynaphthalene-2-yl)]ethylpiperidine]		91.8 ± 1.6		41.8 ± 7.3		23.1 ± 16.8	
Clc1ccc([C@]23CNC[C@H]2C3)cc1Cl [DOV 21947, reference compound]							inhibition at 100 µM ([1]; read-out: Inhibition of reuptake of 5-HT): 109 ± 3.8%; inhibition at 100 µM [2]: 61.9 ± 6%; inhibition at 100 µM [3]: 104 ± 4.2%
COc1ccc(C(CN(C)C)C2(O)CCCCC2)cc1 (centres unmarked) [venlafaxine, reference compound]							inhibition at 100 µM [2]: 46.4 ± 4.6%; inhibition at 100 µM [3]: 48.6 ± 4.1%; Immobility time (mice [4]; dosage 4.56 mg/kg): 57.1 ± 37.8 s; Immobility time (mice [4]; dosage 9.12 mg/kg): 77.4 ± 47.2 s; Immobility time (mice [4]; dosage 18.24 mg/kg): 80.8 ± 46.8 s
